Converted amounts (≈) assume the structure as drawn. Where two headings read alike, the source gives them in different places. Starred links: 1 amine or outer side, 2 acyl side, 3 side chain; linkers in the order of their positions; H or OH if unused. Positions of bridges follow the written chain, without caps; N, C: chain ends. Residues, ends and D or L forms follow the SMILES beside them. *: point of attachment. C20 diacid = O=C(O)CCCCCCCCCCCCCCCCCCC(=O)*; γGlu = O=C(O)[C@H](CCC(=O)[*:2])N[*:1]
Experiments:
[1] = biological target: T1, human calcitonin receptor (Homo sapiens, UniProt P30988); assay: Assay (II)a functional CRE-luciferase assay, human calcitonin receptor; type: cell-based; settings: Table 7; human calcitonin (CTa) receptor
T1 construct: expressed in transfected cells; host or cells: BHK570
T1 sequence (P30988 25-474): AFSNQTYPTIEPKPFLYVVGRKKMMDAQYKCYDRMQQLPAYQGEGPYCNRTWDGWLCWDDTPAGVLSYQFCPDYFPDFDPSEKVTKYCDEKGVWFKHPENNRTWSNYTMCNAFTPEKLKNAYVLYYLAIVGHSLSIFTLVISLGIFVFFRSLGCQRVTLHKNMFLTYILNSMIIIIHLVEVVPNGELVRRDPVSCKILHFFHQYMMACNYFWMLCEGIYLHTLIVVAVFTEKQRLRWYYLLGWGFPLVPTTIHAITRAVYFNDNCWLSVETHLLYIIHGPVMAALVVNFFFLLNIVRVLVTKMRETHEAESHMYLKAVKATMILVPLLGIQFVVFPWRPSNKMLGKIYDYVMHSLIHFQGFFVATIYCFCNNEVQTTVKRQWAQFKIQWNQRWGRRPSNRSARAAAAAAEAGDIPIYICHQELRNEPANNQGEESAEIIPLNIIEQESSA

[2] = Assay (IV) determination of solubility; type: physicochemical
How it was run: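 Solubility is measured across pH 3.0–8.0 by mixing a ~500 nmol/ml aqueous polypeptide stock 1:1 with 100 mM glycylglycine or bistrispropane buffers. Samples stand 18 hours at room temperature, then are centrifuged and the soluble concentration is determined by HPLC.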

[3] = biological target: T2, human amylin receptor (amylin 3(a) receptor: human calcitonin receptor + RAMP-3) (Homo sapiens, UniProt O60896+P30988); assay: Assay (II)a functional CRE-luciferase assay, human amylin receptor; type: cell-based; settings: Table 2; BHK amylin 3(a)-receptor/CRE-luc cells
T2 construct: expressed in transfected cells; host or cells: BHK570
T2 sequence (P30988 25-474): T1 sequence (P30988 25-474)
T2 sequence (O60896 24-148 partner): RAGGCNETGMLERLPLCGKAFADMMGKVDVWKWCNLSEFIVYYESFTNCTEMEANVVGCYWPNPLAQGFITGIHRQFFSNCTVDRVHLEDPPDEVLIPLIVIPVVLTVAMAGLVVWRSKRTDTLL

[4] = Assay (III) ThT fibrillation assay for physical stability; type: physicochemical
How it was run: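 Freshly prepared formulations, pH-adjusted, with 1 μM ThT; four or eight replicates incubated at 37 °C under 960 rpm orbital shaking. Fluorescence (ex 444/em 485 nm) read every 20 min; […]. Peptide concentration measured by RP-HPLC before and after the run.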

[5] = bistrispropane buffer, pH 6, pH 6.0, read-out: Solubility pH 6.0
[6] = bistrispropane buffer, pH 6.5, pH 6.5, read-out: Solubility pH 6.5
[7] = bistrispropane buffer, pH 7, pH 7.0, 18 hours at room temperature, Table 3, read-out: Solubility pH 7.0
[8] = bistrispropane buffer, pH 7, pH 7.0, read-out: Solubility pH 7.0
[9] = bistrispropane buffer, pH 7.5, pH 7.5, read-out: Solubility pH 7.5
[10] = bistrispropane buffer, pH 8, pH 8.0, read-out: Solubility pH 8.0
[11] = glycylglycine buffer, pH 3, pH 3.0, read-out: Solubility pH 3.0
[12] = glycylglycine buffer, pH 4, pH 4.0, 18 hours at room temperature, Table 2, read-out: Solubility pH 4.0
[13] = glycylglycine buffer, pH 4, pH 4.0, read-out: Solubility pH 4.0
[14] = glycylglycine buffer, pH 5, pH 5.0, read-out: Solubility pH 5.0

CC[C@H](C)[C@H](NC(=O)[C@@H]1CCCN1C(=O)CNC(=O)[C@H](Cc1ccccc1)NC(=O)[C@H](CC(N)=O)NC(=O)[C@H](CC(N)=O)NC(=O)[C@H](CO)NC(=O)[C@H](CO)NC(=O)[C@H](Cc1c[nH]cn1)NC(=O)[C@H](Cc1c[nH]cn1)NC(=O)[C@H](CC(C)C)NC(=O)[C@H](Cc1ccccc1)NC(=O)[C@H](CCC(=O)O)NC(=O)[C@H](C)NC(=O)[C@H](CC(C)C)NC(=O)[C@H](CCCNC(=N)N)NC(=O)[C@H](CCC(N)=O)NC(=O)[C@@H](NC(=O)[C@H](C)NC(=O)[C@@H]1CSSC[C@H](NC(=O)CNC(=O)CC[C@H](NC(=O)CCCCCCCCCCCCCCCCCCC(=O)O)C(=O)O)C(=O)N[C@@H](CC(N)=O)C(=O)N[C@@H]([C@@H](C)O)C(=O)N[C@@H](C)C(=O)N[C@@H]([C@@H](C)O)C(=O)N1)[C@@H](C)O)C(=O)N[C@@H](CC(C)C)C(=O)N1CCC[C@H]1C(=O)N1CCC[C@H]1C(=O)N[C@H](C(=O)N[C@@H](CC(N)=O)C(=O)N[C@H](C(=O)NCC(=O)N[C@@H](CO)C(=O)N[C@@H](Cc1c[nH]cn1)C(=O)N[C@H](C(=O)N[C@@H](Cc1ccc(O)cc1)C(N)=O)[C@@H](C)O)C(C)C)[C@@H](C)O [Example 105, N-alpha-[(S)-4-Carboxy-4-(19-carboxynonadecanoylamino)butyryl]-[Gly1,Glu14,His17,His35]-pramlintide] ({C20 diacid-γGlu}-GCNTATCATQRLAEFLHHSSNNFGPILPPTNVGSHTY-NH2; disulfide 2-7 (inferred); C-terminus assumed)
EC50 [1]: 0.16 nM
solubility at 18 h [2, 5]: > 200 µM
solubility at 18 h [2, 6]: 152 µM (≈ 670 µg/mL)
solubility at 18 h [2, 7]: > 200 µM
solubility at 18 h ([2]; bistrispropane buffer, pH 7, pH 7.0, Table 8, read-out: Solubility pH 7.0): > 200 µM
solubility at 18 h [2, 8]: > 200 µM
solubility at 18 h [2, 9]: > 200 µM
solubility at 18 h [2, 10]: > 200 µM
solubility at 18 h [2, 11]: > 200 µM
solubility at 18 h [2, 12]: > 200 µM
solubility at 18 h [2, 13]: > 200 µM
solubility at 18 h [2, 14]: > 200 µM
EC50 [3]: 0.208 nM
ThT pH 4.0 lag time ([4]; Table 8): 26 h
ThT pH 4.0 lag time ([4]; ThT fibrillation assay): 26 h
ThT pH 4.0 lag time (h) ([4]; ThT fibrillation assay): 26 h

CC[C@H](C)[C@H](NC(=O)[C@@H]1CCCN1C(=O)CNC(=O)[C@H](Cc1ccccc1)NC(=O)[C@H](CC(N)=O)NC(=O)[C@H](CC(N)=O)NC(=O)[C@H](CO)NC(=O)[C@H](CO)NC(=O)[C@H](Cc1c[nH]cn1)NC(=O)[C@H](Cc1c[nH]cn1)NC(=O)[C@H](CC(C)C)NC(=O)[C@H](Cc1ccccc1)NC(=O)[C@H](CCC(=O)O)NC(=O)[C@H](C)NC(=O)[C@H](CC(C)C)NC(=O)[C@H](CCCNC(=N)N)NC(=O)[C@H](CCC(N)=O)NC(=O)[C@@H](NC(=O)[C@H](C)NC(=O)[C@@H]1CSSC[C@H](NC(=O)[C@H](CO)NC(=O)CC[C@H](NC(=O)CCCCCCCCCCCCCCCCCCC(=O)O)C(=O)O)C(=O)N[C@@H](CC(N)=O)C(=O)N[C@@H]([C@@H](C)O)C(=O)N[C@@H](C)C(=O)N[C@@H]([C@@H](C)O)C(=O)N1)[C@@H](C)O)C(=O)N[C@@H](CC(C)C)C(=O)N1CCC[C@H]1C(=O)N1CCC[C@H]1C(=O)N[C@H](C(=O)N[C@@H](CC(N)=O)C(=O)N[C@H](C(=O)NCC(=O)N[C@@H](CO)C(=O)N[C@@H](CC(N)=O)C(=O)N[C@H](C(=O)N1CCC[C@H]1C(N)=O)[C@@H](C)O)C(C)C)[C@@H](C)O [Example 106, N-alpha-[(S)-4-Carboxy-4-(19-carboxynonadecanoylamino)butyryl]-[Ser1,Glu14,His17,Pro37]-pramlintide] ({C20 diacid-γGlu}-SCNTATCATQRLAEFLHHSSNNFGPILPPTNVGSNTP-NH2; disulfide 2-7 (inferred); C-terminus assumed)
EC50 [1]: 0.0705 nM
solubility at 18 h [2, 5]: > 200 µM
solubility at 18 h [2, 6]: > 200 µM
solubility at 18 h [2, 7]: > 200 µM
solubility at 18 h [2, 8]: > 200 µM
solubility at 18 h [2, 9]: > 200 µM
solubility at 18 h [2, 10]: > 200 µM
solubility at 18 h [2, 11]: > 200 µM
solubility at 18 h [2, 12]: > 200 µM
solubility at 18 h [2, 13]: > 200 µM
solubility at 18 h [2, 14]: > 200 µM
EC50 [3]: 0.0625 nM
ThT pH 4.0 lag time (h) ([4]; ThT fibrillation assay): 9.7 h

CC[C@H](C)[C@H](NC(=O)[C@@H]1CCCN1C(=O)CNC(=O)[C@H](Cc1ccccc1)NC(=O)[C@H](CC(N)=O)NC(=O)[C@H](CC(N)=O)NC(=O)[C@H](CO)NC(=O)[C@H](CO)NC(=O)[C@H](Cc1c[nH]cn1)NC(=O)[C@H](Cc1c[nH]cn1)NC(=O)[C@H](CC(C)C)NC(=O)[C@H](Cc1ccccc1)NC(=O)[C@H](CCC(=O)O)NC(=O)[C@H](C)NC(=O)[C@H](CC(C)C)NC(=O)[C@H](CCCNC(=N)N)NC(=O)[C@H](CCC(N)=O)NC(=O)[C@@H](NC(=O)[C@H](C)NC(=O)[C@@H]1CSSC[C@H](NC(=O)[C@H](CO)NC(=O)CC[C@H](NC(=O)CCCCCCCCCCCCCCCCCCC(=O)O)C(=O)O)C(=O)N[C@@H](CC(N)=O)C(=O)N[C@@H]([C@@H](C)O)C(=O)N[C@@H](C)C(=O)N[C@@H]([C@@H](C)O)C(=O)N1)[C@@H](C)O)C(=O)N[C@@H](CC(C)C)C(=O)N1CCC[C@H]1C(=O)N1CCC[C@H]1C(=O)N[C@H](C(=O)N[C@@H](CC(N)=O)C(=O)N[C@H](C(=O)NCC(=O)N[C@@H](CO)C(=O)N[C@@H](Cc1c[nH]cn1)C(=O)N[C@H](C(=O)N[C@@H](Cc1ccc(O)cc1)C(N)=O)[C@@H](C)O)C(C)C)[C@@H](C)O [Example 107, N-alpha-[(S)-4-Carboxy-4-(19-carboxynonadecanoylamino)butyryl]-[Ser1,Glu14,His17,His35]-pramlintide] ({C20 diacid-γGlu}-SCNTATCATQRLAEFLHHSSNNFGPILPPTNVGSHTY-NH2; disulfide 2-7)
EC50 [1]: 0.171 nM
solubility at 18 h [2, 5]: 49 µM (≈ 217 µg/mL)
solubility at 18 h [2, 6]: 4 µM (≈ 17.8 µg/mL)
solubility at 18 h [2, 8]: 27 µM (≈ 120 µg/mL)
solubility at 18 h [2, 9]: 174 µM (≈ 772 µg/mL)
solubility at 18 h [2, 10]: > 200 µM
solubility at 18 h [2, 11]: > 200 µM
solubility at 18 h [2, 12]: > 200 µM
solubility at 18 h [2, 13]: > 200 µM
solubility at 18 h [2, 14]: > 200 µM
EC50 [3]: 0.225 nM
ThT pH 4.0 lag time (h) ([4]; ThT fibrillation assay): 19 h

CC[C@H](C)[C@H](NC(=O)[C@@H]1CCCN1C(=O)CNC(=O)[C@H](Cc1ccccc1)NC(=O)[C@H](CC(N)=O)NC(=O)[C@H](CC(N)=O)NC(=O)[C@H](CO)NC(=O)[C@H](CO)NC(=O)[C@H](Cc1c[nH]cn1)NC(=O)[C@@H](NC(=O)[C@H](CC(C)C)NC(=O)[C@H](Cc1ccccc1)NC(=O)[C@H](CCC(=O)O)NC(=O)[C@H](C)NC(=O)[C@H](CC(C)C)NC(=O)[C@H](CCCNC(=N)N)NC(=O)[C@H](CCC(N)=O)NC(=O)[C@@H](NC(=O)[C@H](C)NC(=O)[C@@H]1CSSC[C@H](NC(=O)CC[C@H](NC(=O)CCCCCCCCCCCCCCCCCCC(=O)O)C(=O)O)C(=O)N[C@@H](CC(N)=O)C(=O)N[C@@H]([C@@H](C)O)C(=O)N[C@@H](C)C(=O)N[C@@H]([C@@H](C)O)C(=O)N1)[C@@H](C)O)C(C)C)C(=O)N[C@@H](CC(C)C)C(=O)N1CCC[C@H]1C(=O)N1CCC[C@H]1C(=O)N[C@H](C(=O)N[C@@H](CC(N)=O)C(=O)N[C@H](C(=O)NCC(=O)N[C@@H](CO)C(=O)N[C@@H](CC(N)=O)C(=O)N[C@H](C(=O)N1CCC[C@H]1C(N)=O)[C@@H](C)O)C(C)C)[C@@H](C)O [Example 108, N-alpha-[(S)-4-Carboxy-4-(19-carboxynonadecanoylamino)butyryl]-[des1,Glu14,Pro37]-pramlintide] ({C20 diacid-γGlu}-CNTATCATQRLAEFLVHSSNNFGPILPPTNVGSNTP-NH2; disulfide 1-6 (inferred))
EC50 [1]: 0.0735 nM
solubility at 18 h [2, 5]: 193 µM (≈ 815 µg/mL)
solubility at 18 h [2, 6]: > 200 µM
solubility at 18 h [2, 7]: > 200 µM
solubility at 18 h [2, 8]: > 200 µM
solubility at 18 h [2, 9]: > 200 µM
solubility at 18 h [2, 10]: > 200 µM
solubility at 18 h [2, 11]: > 200 µM
solubility at 18 h [2, 12]: > 200 µM
solubility at 18 h [2, 13]: > 200 µM
solubility at 18 h [2, 14]: > 200 µM
EC50 [3]: 0.088 nM
ThT pH 4.0 lag time (h) ([4]; ThT fibrillation assay): 2.7 h

— patent publication US8722849B2, “Polypeptides” (Novo Nordisk A/S, priority 2011, dated 2014)
